pIC50: −log10 of the molar value. Where only a bound is given, the exact number is not on record here.

Chain of PI3K delta (O00329 whole entry): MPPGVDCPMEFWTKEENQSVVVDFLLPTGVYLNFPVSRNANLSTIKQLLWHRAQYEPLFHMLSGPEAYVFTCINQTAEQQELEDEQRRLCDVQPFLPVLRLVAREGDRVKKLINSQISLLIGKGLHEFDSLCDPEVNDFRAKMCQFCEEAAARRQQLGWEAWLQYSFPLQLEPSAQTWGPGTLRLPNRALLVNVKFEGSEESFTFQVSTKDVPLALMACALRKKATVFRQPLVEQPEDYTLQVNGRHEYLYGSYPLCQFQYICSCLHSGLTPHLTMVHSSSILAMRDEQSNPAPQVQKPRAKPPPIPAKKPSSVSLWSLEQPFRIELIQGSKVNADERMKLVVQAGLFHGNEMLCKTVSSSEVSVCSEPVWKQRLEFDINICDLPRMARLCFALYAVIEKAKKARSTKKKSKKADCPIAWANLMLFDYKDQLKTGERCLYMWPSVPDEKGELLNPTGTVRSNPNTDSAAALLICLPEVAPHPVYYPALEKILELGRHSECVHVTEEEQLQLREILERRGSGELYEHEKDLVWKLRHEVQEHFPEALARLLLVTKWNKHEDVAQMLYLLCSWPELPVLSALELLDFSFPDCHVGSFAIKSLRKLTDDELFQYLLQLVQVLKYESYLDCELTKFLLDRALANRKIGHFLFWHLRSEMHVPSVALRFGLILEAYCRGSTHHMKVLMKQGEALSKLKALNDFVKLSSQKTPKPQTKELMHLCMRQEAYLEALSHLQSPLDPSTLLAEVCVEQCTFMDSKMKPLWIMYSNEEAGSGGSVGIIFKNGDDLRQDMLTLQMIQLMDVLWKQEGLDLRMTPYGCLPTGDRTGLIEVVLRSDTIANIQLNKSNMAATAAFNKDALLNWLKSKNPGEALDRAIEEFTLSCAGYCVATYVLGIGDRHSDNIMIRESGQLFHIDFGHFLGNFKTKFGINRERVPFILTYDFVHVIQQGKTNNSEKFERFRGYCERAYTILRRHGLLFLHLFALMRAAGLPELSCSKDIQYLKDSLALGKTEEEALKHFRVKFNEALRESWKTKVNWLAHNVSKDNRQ
Chain of PI3K delta (P27986 whole entry partner): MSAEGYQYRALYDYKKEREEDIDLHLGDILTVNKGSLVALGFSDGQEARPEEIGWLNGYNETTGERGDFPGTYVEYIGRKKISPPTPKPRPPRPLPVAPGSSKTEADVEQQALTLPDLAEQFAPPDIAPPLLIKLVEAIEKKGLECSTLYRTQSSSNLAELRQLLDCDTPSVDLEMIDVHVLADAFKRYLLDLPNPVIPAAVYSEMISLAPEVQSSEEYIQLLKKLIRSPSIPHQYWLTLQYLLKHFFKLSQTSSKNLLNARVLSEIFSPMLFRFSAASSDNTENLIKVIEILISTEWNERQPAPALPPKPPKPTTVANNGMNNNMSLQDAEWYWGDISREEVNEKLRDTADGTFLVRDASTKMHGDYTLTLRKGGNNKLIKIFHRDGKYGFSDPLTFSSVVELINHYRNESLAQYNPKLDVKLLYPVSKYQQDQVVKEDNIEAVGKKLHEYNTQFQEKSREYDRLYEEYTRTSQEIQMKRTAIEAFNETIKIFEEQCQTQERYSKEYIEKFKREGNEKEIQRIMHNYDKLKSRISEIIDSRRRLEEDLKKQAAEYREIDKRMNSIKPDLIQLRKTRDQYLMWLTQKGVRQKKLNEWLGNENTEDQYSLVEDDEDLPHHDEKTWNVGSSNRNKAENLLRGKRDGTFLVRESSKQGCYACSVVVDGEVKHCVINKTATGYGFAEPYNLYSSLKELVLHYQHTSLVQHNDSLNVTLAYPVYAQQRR

The experiment addresses PI3K delta (Homo sapiens, UniProt O00329). The experiment is described as follows: Luciferase-coupled chemiluminescence kinase assay (ATP consumption, KinaseGlo). The class given is biochemical. In short, it runs like this: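 Compound, kinase and ATP (≤ KM) reacted 2 h at ambient temperature, then remaining ATP quantified with luciferase-luciferin (KinaseGlo) luminescence as percent consumed.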
Background: In Kinase-Glo more light means more ATP remaining.
In general, pIC50 refers to the negative decadic logarithm of the IC50, by convention in mol/L. A lower pIC50 goes with a large IC50. The compound `CCCCc1nnc(-c2nc3c(N4CCC(n5c(=O)[nH]c6ccccc65)CC4)ncnc3n2C)o1` [Compound 232, 1-(1-[8-(5-butyl-1,3,4-oxadiazol-2-yl)-9-methyl-9H-purin-6-yl]piperidin-4-yl)-1,3-dihydro-2H-benzimidazol-2-one] gave a pIC50 of over 7.30. The same measure for `CCn1c(C(=O)NC2CCC2)nc2c(N3CCC4(CC3)C(=O)Nc3ccccc34)ncnc21` [Compound 221, N-cyclobutyl-9-ethyl-6-(2-oxo-1,2-dihydro-1′H-spiro[indole-3,4′-piperidin]-1′-yl)-9H-purine-8-carboxamide]: over 7.30; for `Cn1c(C(=O)NCC(F)(F)F)nc2c(N3CCC(n4c(=O)[nH]c5ccccc54)CC3)ncnc21` [Compound 60, 9-methyl-6-[4-(2-oxo-2,3-dihydro-1H-benzimidazol-1-yl)piperidin-1-yl]-N-(2,2,2-trifluoromethyl)-9H-purine-8-carboxamide]: over 7.30; for `Cn1c(C(=O)N2CC[C@H](F)C2)nc2c(N3CCC(n4c(=O)[nH]c5ccccc54)CC3)ncnc21` [Compound 396, 1-[1-(8-{[(3S)-3-fluoropyrrolidin-1-yl]carbonyl)-9-methyl-9H-purin-6-yl)piperidin-4-yl]-1,3-dihydro-2H-benzimidazol-2-one]: 6.60 to 7.30.

For the compound `Cn1c(-c2cnc3[nH]ccc3c2)nc2c(N3CCC(n4c(=O)[nH]c5ccccc54)CC3)ncnc21` [Compound 302, 1-{1-[9-methyl-8-(1H-pyrrolo[2,3-b]pyridin-5-yl)-9H-purin-6-yl]piperidin-4-yl}-1,3-dihydro-2H-benzimidazol-2-one], the pIC50 is over 7.30. Turning to `CCn1c(C(=O)NCC2CC2)nc2c(N3CCC(n4c(=O)[nH]c5ccccc54)CC3)ncnc21` [Compound 97, N-(cyclopropylmethyl)-9-ethyl-6-[4-(2-oxo-2,3-dihydro-1H-benzimidazol-1-yl)piperidin-1-yl]-9H-purine-8-carboxamide], the pIC50 is over 7.30.

The compound `Cn1c(C(=O)NCC2CCCO2)nc2c(N3CCC4(CC3)C(=O)Nc3ccccc34)ncnc21` (stereo not shown) [Compound 85, 9-methyl-6-(2-oxo-1,2-dihydro-1′H-spiro[indole-3,4′-piperidin]-1′-yl)-N-(tetrahydrofuran-2-ylmethyl)-9H-purine-8-carboxamide] showed a negative-log IC50 (pIC50) of 5.82 to 6.30.

`CCCc1nnc(-c2nc3c(N4CCC5(CC4)C(=O)Nc4ccccc45)ncnc3n2CC)o1` [Compound 227, 1′-[9-ethyl-8-(5-propyl-1,3,4-oxadiazol-2-yl)-9H-purin-6-yl]spiro[indole-3,4′-piperidin]-2(1H)-one] showed a pIC50 of over 7.30.

Regarding `Cn1c(C(=O)NCc2ccncc2)nc2c(N3CCC(n4c(=O)[nH]c5ccccc54)CC3)ncnc21` [Compound 52, 9-methyl-6-[4-(2-oxo-2,3-dihydro-1H-benzimidazol-1-yl)piperidin-1-yl]-N-(pyridin-4-ylmethyl)-9H-purine-8-carboxamide], the pIC50 is 6.60 to 7.30. The same measure for `Cn1c(C(=O)NCCc2ccccn2)nc2c(N3CCC4(CC3)C(=O)Nc3ccccc34)ncnc21` [Compound 21, 9-methyl-6-(2-oxo-1,2-dihydro-1′H-spiro[indole-3,4′-piperidin]-1′-yl)-N-(2-pyridin-2-ylethyl)-9H-purine-8-carboxamide]: 5.82 to 6.30; for `Cn1c(-c2cncc(Br)c2)nc2c(N3CCC(n4c(=O)[nH]c5ccccc54)CC3)ncnc21` [Compound 285, 1-{1-[8-(5-bromopyridin-3-yl)-9-methyl-9H-purin-6-yl]piperidin-4-yl}-1,3-dihydro-2H-benzimidazol-2-one]: over 7.30; for `Cn1cc(-c2nc3c(N4CCC(n5c(=O)[nH]c6ccccc65)CC4)ncnc3n2C)cn1` [Compound 149, 1-{1-[9-Methyl-8-(1-methyl-1H-pyrazol-4-yl)-9H-purin-6-yl]piperidin-4-yl}-1,3-dihydro-2H-benzimidazol-2-one]: over 7.30.

As to `Cn1c(-c2c[nH]c3ncccc23)nc2c(N3CCC(n4c(=O)[nH]c5ccccc54)CC3)ncnc21` [Compound 301, 1-{1-[9-methyl-8-(1H-pyrrolo[2,3-b]pyridin-3-yl)-9H-purin-6-yl]piperidin-4-yl}-1,3-dihydro-2H-benzimidazol-2-one], the pIC50 is over 7.30. Next, `CCn1c(-c2cnn(C)c2C)nc2c(N3CCC(n4c(=O)[nH]c5ccccc54)CC3)ncnc21` [Compound 260, 1-{1-[8-(1,5-dimethyl-1H-pyrazol-4-yl)-9-ethyl-9H-purin-6-yl]piperidin-4-yl}-1,3-dihydro-2H-benzimidazol-2-one]: over 7.30; `Cn1c(C(=O)NCC2CC2)nc2c(N3CCC(n4c(=O)[nH]c5c(Cl)cccc54)CC3)ncnc21` [Compound 230, 6-[4-(4-chloro-2-oxo-2,3-dihydro-1H-benzimidazol-1-yl)piperidin-1-yl]-N-(cyclopropylmethyl)-9-methyl-9H-purine-8-carboxamide]: 6.60 to 7.30.

`Cc1nnc(-c2nc3c(N4CCC(n5c(=O)[nH]c6ccccc65)CC4)ncnc3n2C)n1C` [Compound 332, 1-{1-[8-(4,5-dimethyl-4H-1,2,4-triazol-3-yl)-9-methyl-9H-purin-6-yl]piperidin-4-yl}-1,3-dihydro-2H-benzimidazol-2-one] gave a pIC50 of 6.60 to 7.30. Next, `CCn1c(-c2cnn(C)c2)nc2c(N3CCC(n4c(=O)[nH]c5ncccc54)CC3)ncnc21` [Compound 323, 1-{1-[9-ethyl-8-(1-methyl-1H-pyrazol-4-yl)-9H-purin-6-yl]piperidin-4-yl}-1,3-dihydro-2H-imidazo[4,5-b]pyridin-2-one]: over 7.30; `CCn1c(-c2ccc(C(F)(F)F)nc2)nc2c(N3CCC(n4c(=O)[nH]c5ccccc54)CC3)ncnc21` [Compound 314, 1-(1-{9-ethyl-8-[6-(trifluoromethyl)pyridin-3-yl]-9H-purin-6-yl}piperidin-4-yl)-1,3-dihydro-2H-benzimidazol-2-one]: over 7.30; `CC(C)CNC(=O)c1nc2c(N3CCC(n4c(=O)[nH]c5ccccc54)CC3)ncnc2n1C` [Compound 67, 9-methyl-N-(2-methylpropyl)-6-[4-(2-oxo-2,3-dihydro-1H-benzimidazol-1-yl)piperidin-1-yl]-9H-purine-8-carboxamide]: over 7.30. Next, `CCn1c(-c2nnc(C3CC3)o2)nc2c(N3CCC4(CC3)C(=O)Nc3ccccc34)ncnc21` [Compound 210, 1′-[8-(5-cyclopropyl-1,3,4-oxadiazol-2-yl)-9-ethyl-9H-purin-6-yl]spiro[indole-3,4′-piperidin]-2(1H)-one]: over 7.30; `Cn1c(C(=O)NCC2CC2)nc2c(N3CCC(n4c(=O)[nH]c5cc(F)ccc54)CC3)ncnc21` [Compound 205, N-(cyclopropylmethyl)-6-[4-(5-fluoro-2-oxo-2,3-dihydro-1H-benzimidazol-1-yl)piperidin-1-yl]-9-methyl-9H-purine-8-carboxamide]: 6.60 to 7.30; `Cn1c(C(=O)N2CC(F)(F)C2)nc2c(N3CCC(n4c(=O)[nH]c5ccccc54)CC3)ncnc21` [Compound 104, 1-(1-{8-[(3,3-difluoroazetidin-1-yl)carbonyl]-9-methyl-9H-purin-6-yl}piperidin-4-yl)-1,3-dihydro-2H-benzimidazol-2-one]: 6.60 to 7.30.

For `CN1C(=O)C2(CCN(c3ncnc4c3nc(C(=O)NCC3CC3)n4C)CC2)c2ccccc21` [Compound 141, N-(cyclopropylmethyl)-9-methyl-6-(1-methyl-2-oxo-1,2-dihydro-1′H-spiro[indole-3,4′-piperidin]-1′-yl)-9H-purine-8-carboxamide], the pIC50 was 5.82 to 6.30. Compound `CC(C)Cn1cc(-c2nc3c(N4CCC(n5c(=O)[nH]c6ccccc65)CC4)ncnc3n2C)cn1` [Compound 148, 1-(1-{9-methyl-8-[1-(2-methylpropyl)-1H-pyrazol-4-yl]-9H-purin-6-yl}piperidin-4-yl)-1,3-dihydro-2H-benzimidazol-2-one] had a pIC50 of over 7.30. Compound `Cn1cc(-c2nc3c(N4CCN(S(=O)(=O)c5cccc(C#N)c5)CC4)ncnc3n2C)cn1` [Compound 382, 3-({4-[9-methyl-8-(1-methyl-1H-pyrazol-4-yl)-9H-purin-6-yl]piperazin-1-yl)sulfonyl)benzonitrile] gave a pIC50 of 6.30 to 6.60.
